Patent publication US4684650A, “Antihypertensive fluorophenylindanyl imidazolidinoneethylpiperazines” (priority 1984, dated 1987)
Like-named read-outs stand apart in the source and are kept apart here.

Key:
[1] = tested on: spontaneous hypertensive rats (SHR); experiment: Antihypertensive effect in spontaneous hypertensive rats (SHR); assay type: in vivo; details: for change in vivo at 5 mg/kg / ED10: Rattus norvegicus, ip; for change in vivo at 5 mg/kg: 1 h
Description: Antihypertensive effect in spontaneous hypertensive rats (SHR)
The femoral artery of male SHR is cannulated in anaestesia for blood pressure recordings. After a stabilization period of 11/2 h after discontinuation of the anaesthesia initial blood pressure curves are recorded and the systolic (SAP)/diastolic (DAP) pressure determined (-20, -10, 0, min. p.i.) Test substance is injected i.p. and the pressure curve recorded for one hour. The change in SAP/DAP is calculated in percent at mean initial values at different times (10, 20, 30, 40, 50 and 60 minutes after injection). At least two SHR are used per dose level. The maximum change is used for estimation of the drug effect.

[2] = tested on: methylphenidate induced stereotypies; experiment: Methylphenidate Antagonism; assay type: in vivo, mice; details: for ED50: Mus musculus, ip, read-out: MePh antg. ED50, i.p., mice, 2 hours before methylphenidate 60 mg/kg s.c.; for MePh antg. ED50: i.p., mice, 2 hours before methylphenidate 60 mg/kg s.c.
Description: The experiments were made as described by Pedersen and Christensen (1972) Acta Pharmacol. et Toxicol. 31, 488-496.--Briefly, test compounds or saline were injected i.p. 2 hours before methylphenidate, 60 mg/kg s.c. 3 pairs of mice were used for each dose level. After methylphenidate injection the mice were placed in observation cages for one hour. The cages were placed on corrugated paper, the corrugation facing upwards.

5-HT pressor responses = experiment: Antagonism to 5-HT pressor responses in pithed rats; assay type: in vivo; details: for change in vivo at 0.02 mg/kg / ED50: Rattus norvegicus, iv
Description: (§1) The rat is anaesthetized with ether, tracheotomized, artificial respired and pithed. The knitting-needle is introduced through the right orbita into the cranial cavity and passed through foramen magnum into the spinal canal as far as possible. The spinal cord is destroyed by turning the needle. After vagotomi both carotides are ligated and a catheter placed in the right one for pressure recording. The rat is adrenalectomized. […] The initial and post medication mean pressor effect is calculated, and the mean pressor effect is calculated as % of the initial value. Two to five preparations are employed for each dose level. The ED50 is determined.

[3] = tested on: 1-5-HTP-induced head shakes; experiment: 1-5-HTP-induced head shakes; assay type: in vivo; details: rats, 1-5-HTP 75 mg/kg i.p. after citalopram; for ED50: Rattus norvegicus, sc, read-out: 1-5-HTP-antg. ED50; for 1-5-HTP-antg. ED50: s.c.
Description: The rats were pretreated subcutaneously with test compound or saline simultaneously with or 90 min before injection of citalopram (10 mg/kg s.c.).
Each group consisted of 4-12 rats.

5-HT2 receptors = target: T1, 5-HT2 receptors (Rattus norvegicus, UniProt P14842); experiment: 3H-spiroperidol binding to 5-HT2 receptors; details: rat whole cortex, 0.5 nM 3H-spiroperidol, 0.3 μM sulpiride; read-out: 3H-SPI binding 5-HT2 IC50
T1 construct: Rat whole cortex was homogenized by an Ultra Turrax homogenizer; from tissue; host or cells: rat whole cerebral cortex, crude washed membranes
T1 sequence (P14842 whole entry): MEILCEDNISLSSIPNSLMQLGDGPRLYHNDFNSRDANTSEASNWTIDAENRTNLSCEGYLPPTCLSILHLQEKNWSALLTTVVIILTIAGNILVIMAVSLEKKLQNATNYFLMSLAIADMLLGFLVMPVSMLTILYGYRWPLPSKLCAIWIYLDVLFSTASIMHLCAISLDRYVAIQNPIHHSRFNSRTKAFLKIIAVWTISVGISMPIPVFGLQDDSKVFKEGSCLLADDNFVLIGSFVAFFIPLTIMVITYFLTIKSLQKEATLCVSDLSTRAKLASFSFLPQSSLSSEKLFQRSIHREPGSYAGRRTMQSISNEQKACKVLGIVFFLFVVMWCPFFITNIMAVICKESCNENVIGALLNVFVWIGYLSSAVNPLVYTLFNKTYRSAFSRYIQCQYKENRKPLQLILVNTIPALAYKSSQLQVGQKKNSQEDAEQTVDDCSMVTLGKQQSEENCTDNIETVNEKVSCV
Description: ^3 H-spiroperidol binding to 5-HT2 receptors.
Rat whole cortex was homogenized by an Ultra Turrax homogenizer in 100 vol. of 50 mM Tris buffer pH 7.7. The homogenate was centrifuged at 20,000 g for 10 minutes at 4° C. The pellet was rehomogenized in another volume of buffer and centrifuged as mentioned above. The final pellet was rehomogenized in 50 mM Tris buffer pH 7.7 containing 120 mM NaCl, 5 mM KCl, 2 mM CaCl2 and 1 mM MgCl2 (ion mix) in a volume corresponding to 12.5 mg original tissue per ml.
Test drugs were dissolved in water; ^3 H-spiroperidol (NEN, 28-30 Ci/mmol) was diluted in 3 μM sulpiride, and 800 μl membrane suspension were added. Final concentration of ligand and sulpiride were 0.5 nM and 0.3 μM, respectively. The samples were incubated at 37° C. for 10 min. The samples were then filtered under vacuum through Whatman GF/B glass-fiber filters. The tubes were then rinsed with 5 ml incubation buffer, which was poured on the filters. The filters were finally washed twice with 5 ml buffer and placed in counting vials. After addition of 5 ml scintillation fluid (Lumagel) radioactivity was estimated by liquid scintillation counting. Non-specific binding was obtained by adding Mianserin (1 μM) to separate samples. Each drug was tested at least twice at 5 concentrations in triplicate. IC50-values were determined from log concentration-response curves.--The presence of sulpiride excluded binding to dopamine D-2 receptors.

[4] = tested on: phenylephrine pressor responses; experiment: Antagonism to phenylephrine pressor responses in pithed rats; assay type: in vivo; details: for change in vivo at […] / ED50: Rattus norvegicus, iv; for change in vivo at […]: read-out: Effects on pressor response of Phenylephrine, % eff. of […], pithed rats, […], jugular vein, read-out: Effects on pressor response of Phenylephrine, % eff. of 0.31 mg/kg; for ED50: read-out: Effects on pressor response of Phenylephrine, ED50
Description: as §1

[5] = read-out: Antihypertensive eff. SHR, max eff. in % of 5 mg/kg ip, DAP, 5 mg/kg ip, diastolic pressure (DAP), max change within one hour
[6] = read-out: Antihypertensive eff. SHR, max eff. in % of 5 mg/kg ip, SAP, 5 mg/kg ip, systolic pressure (SAP), max change within one hour
[7] = read-out: Effects on pressor response of 5-HT, % eff. of 0.02 mg/kg, pithed rats, 0.02 mg/kg, jugular vein
[8] = 5 mg/kg ip, diastolic pressure (DAP), max change within one hour, read-out: Antihypertensive eff. SHR, max eff. in % of 5 mg/kg ip, DAP
[9] = 5 mg/kg ip, systolic pressure (SAP), max change within one hour, read-out: Antihypertensive eff. SHR, max eff. in % of 5 mg/kg ip, SAP
[10] = pithed rats, 0.02 mg/kg, jugular vein, read-out: Effects on pressor response of 5-HT, % eff. of 0.02 mg/kg
[11] = pithed rats, 0.02 mg/kg, jugular vein
[12] = 5 mg/kg ip, diastolic pressure (DAP), max change within one hour
[13] = 5 mg/kg ip, systolic pressure (SAP), max change within one hour

Row | Structure (SMILES) | change in vivo at 5 mg/kg [1, 5] | change in vivo at 5 mg/kg [1, 6] | ED50 [2] | change in vivo at 0.02 mg/kg (5-HT pressor responses; [7]) | ED50 [3] | IC50 (5-HT2 receptors) | Effects on pressor response of 5-HT, % eff. of 0.02 mg/kg (5-HT pressor responses; [11]) | also measured
1 | CN1CCN(CCN2CCN([C@@H]3C[C@@H](c4ccc(F)cc4)c4ccccc43)CC2)C1=O (relative stereo) [compound 11] | -8% | -6% | > 80 µmol/kg | -81% | 1.4 µmol/kg | 13 nM | – | –
2 | O=C1OCCN1CCCN1CCN([C@@H]2C[C@@H](c3ccc(F)cc3)c3ccc(F)cc32)CC1 (relative stereo) [compound 15] | – | – | 39 µmol/kg | – | 0.31 µmol/kg | – | – | change in vivo at 5 mg/kg [1, 8]: -18%; change in vivo at 5 mg/kg [1, 9]: -12%; change in vivo at 0.02 mg/kg (5-HT pressor responses; [10]): -31%; change in vivo at […] [4]: -7%
3 | CCN1CCN(CCN2CCN([C@@H]3C[C@@H](c4ccc(F)cc4)c4ccc(F)cc43)CC2)C1=O (relative stereo) [compound 12] | 4% | 4% | > 75 µmol/kg | -94% | 0.092 µmol/kg | 4.9 nM | – | peripheral or central action ([1]; in words): marked central effects
4 | O=C(c1ccc(F)cc1)C1CCN(CCn2c(=O)[nH]c3ccccc3c2=O)CC1 [Ketanserin, reference compound] | -24% | -32% | 101 µmol/kg | -46% | 0.58 µmol/kg | – | – | ED10 ([1]; read-out: Antihypertensive eff. SHR, ED10 DAP): 1.2 µmol/kg; ED10 ([1]; read-out: Antihypertensive eff. SHR, ED10 SAP): 1.6 µmol/kg; ED50 (5-HT pressor responses; read-out: Effects on pressor response of 5-HT, ED50, pithed rats, jugular vein): 0.033 µmol/kg; ED50 [4]: 3.6 µmol/kg
5 | Fc1ccc([C@@H]2C[C@@H](N3CCN(CCN4CCNC4=S)CC3)c3ccccc32)cc1 (relative stereo) [compound 27, Trans-1-[3-(4-fluorophenyl)-indan-1-yl]-4-[2-(imidazolidin-2-thion-1-yl)ethyl]piperazine] | -29% | -18% | > 61 µmol/kg | -71% | 0.48 µmol/kg | 4.7 nM | – | –
6 | CC(C)c1ccc2c(c1)[C@H](N1CCN(CCN3CCNC3=O)CC1)C[C@H]2c1ccc(F)cc1 (relative stereo) [compound 5] | – | – | 24 µmol/kg | – | 1.7 µmol/kg | – | – | change in vivo at 5 mg/kg [1, 8]: -10%; change in vivo at 5 mg/kg [1, 9]: -9%; change in vivo at 0.02 mg/kg (5-HT pressor responses; [10]): -6%; change in vivo at […] [4]: -33%
7 | O=C1CCCN1CCN1CCN([C@@H]2C[C@@H](c3ccc(F)cc3)c3ccc(F)cc32)CC1 (relative stereo) [compound 18] | – | – | 18 µmol/kg | -67% | 0.76 µmol/kg | 12 nM | – | Antihypertensive eff. SHR, max eff. in % of 5 mg/kg ip, SAP/DAP (inactive) ([1]; 5 mg/kg ip): I
8 | CN1CCN(CCN2CCN([C@@H]3C[C@@H](c4ccc(F)cc4)c4ccc(F)cc43)CC2)C1=O (single isomer, unassigned) [-3] | – | – | – | – | – | 410 nM | -6% | Antihypertensive eff. SHR, max eff. in % of 5 mg/kg ip, SAP/DAP (inactive) ([1]; 5 mg/kg ip): I; MePh antg. ED50 [2]: > 91 µmol/kg; 1-5-HTP-antg. ED50 [3]: 45 µmol/kg
9 | CN1CCC(CCN2CCN([C@H]3C[C@H](c4ccc(F)cc4)c4ccccc43)CC2)C1=O (relative stereo) [compound 23] | – | – | > 61 µmol/kg | – | 1.4 µmol/kg | 16 nM | -38% | Antihypertensive eff. SHR, max eff. in % of 5 mg/kg ip, DAP [1, 12]: -43%; Antihypertensive eff. SHR, max eff. in % of 5 mg/kg ip, SAP [1, 13]: -31%
10 | O=C1OCCN1CCN1CCN([C@@H]2C[C@@H](c3ccc(F)cc3)c3ccccc32)CC1 (relative stereo) [compound 7] | – | – | > 83 µmol/kg | – | 2.7 µmol/kg | – | – | change in vivo at 5 mg/kg [1, 8]: -19%; change in vivo at 5 mg/kg [1, 9]: -15%; change in vivo at 0.02 mg/kg (5-HT pressor responses; [10]): -4%; change in vivo at […] [4]: -18%
11 | O=C1NCCN1CCN1CCN([C@@H]2C[C@@H](c3ccc(F)cc3)c3ccccc32)CC1 (single isomer, unassigned) [-1] | – | – | – | – | – | 130 nM | -11% | Antihypertensive eff. SHR, max eff. in % of 5 mg/kg ip, DAP [1, 12]: -11%; Antihypertensive eff. SHR, max eff. in % of 5 mg/kg ip, SAP [1, 13]: -3%; MePh antg. ED50 [2]: > 97 µmol/kg; 1-5-HTP-antg. ED50 [3]: 8.9 µmol/kg
12 | O=C1NCCN1CCN1CCN([C@@H]2C[C@@H](c3ccc(F)cc3)c3ccc(Cl)cc32)CC1 (single isomer, unassigned) [-20] | – | – | – | – | < 8.4 µmol/kg | – | -11% | Antihypertensive eff. SHR, max eff. in % of 5 mg/kg ip, DAP [1, 12]: -16%; Antihypertensive eff. SHR, max eff. in % of 5 mg/kg ip, SAP [1, 13]: -7%; MePh antg. ED50 [2]: > 67 µmol/kg; Effects on pressor response of Phenylephrine, % eff. of […] ([4]; pithed rats, jugular vein): +21%
13 | O=C1NCCN1CCN1CCN([C@@H]2C[C@@H](c3ccc(F)cc3)c3ccc(C(F)(F)F)cc32)CC1 (relative stereo) [compound 6] | -14% | -10% | 1.8 µmol/kg | -52% | 0.29 µmol/kg | 9.9 nM | – | –
14 | O=c1[nH]c2ccccc2c(=O)n1CCN1CCN([C@H]2C[C@H](c3ccc(F)cc3)c3ccccc32)CC1 (relative stereo) [compound 19] | – | – | > 70 µmol/kg | – | – | – | -35% | Antihypertensive eff. SHR, max eff. in % of 5 mg/kg ip, DAP [1, 12]: -27%; Antihypertensive eff. SHR, max eff. in % of 5 mg/kg ip, SAP [1, 13]: -22%; Effects on pressor response of Phenylephrine, % eff. of […] ([4]; pithed rats, jugular vein): -42%
15 | O=C1OCCN1CCN1CCN([C@@H]2C[C@@H](c3ccc(F)cc3)c3ccc(F)cc32)CC1 (relative stereo) [compound 8] | – | – | 18 µmol/kg | – | 1.3 µmol/kg | – | – | change in vivo at 5 mg/kg [1, 8]: -26%; change in vivo at 5 mg/kg [1, 9]: -20%; change in vivo at 0.02 mg/kg (5-HT pressor responses; [10]): -40%; ED50 (5-HT pressor responses; pithed rats, jugular vein, read-out: Effects on pressor response of 5-HT, ED50): 0.084 µmol/kg; change in vivo at […] [4]: -19%; ED50 ([4]; pithed rats, jugular vein): 4.35 µmol/kg; Phenylephr. antg./5-HT antg. (ratio) ([4]; pithed rats, ratio of phenylephrine ED50 to 5-HT ED50): 52
16 | Fc1ccc([C@@H]2C[C@@H](N3CCN(CCN4CCCNC4=S)CC3)c3cc(F)ccc32)cc1 (relative stereo) [compound 26] | -19% | -13% | – | -67% | 0.11 µmol/kg | 7.7 nM | – | –
